Where two headings read alike, the source gives them in different places. *1 amine or outer side, *2 acyl side, *3 side chain or, on linkers, in order; H or OH if unused. Where a SMILES comes first, the peptide text is derived from it. Bridges are numbered along the chain shown (N, C = ends). [ ]: non-standard residue; d: D form. Phe(3-Me) = Cc1cccc(C[C@H](N)C(=O)O)c1; Phe(4-Me) = Cc1ccc(C[C@H](N)C(=O)O)cc1; Phe(2-Me) = Cc1ccccc1C[C@H](N)C(=O)O; NMeR = CN[C@@H](CCCNC(=N)N)C(=O)O; β3hE = N[C@@H](CCC(=O)O)CC(=O)O; X1 = O=C(c1ccccc1C[*:2])[*:1]; Pen = CC(C)(S)[C@H](N)C(=O)O
Assays:
[1] = target: T1, RPMI 8866 cells (Homo sapiens, UniProt P13612+P26010); experiment: α4β7-MAdCAM Cell Adhesion Assay; format: cell-based; conditions: read-out: Cell-Adhesion A4B7
T1 sequence (P13612 34-1032): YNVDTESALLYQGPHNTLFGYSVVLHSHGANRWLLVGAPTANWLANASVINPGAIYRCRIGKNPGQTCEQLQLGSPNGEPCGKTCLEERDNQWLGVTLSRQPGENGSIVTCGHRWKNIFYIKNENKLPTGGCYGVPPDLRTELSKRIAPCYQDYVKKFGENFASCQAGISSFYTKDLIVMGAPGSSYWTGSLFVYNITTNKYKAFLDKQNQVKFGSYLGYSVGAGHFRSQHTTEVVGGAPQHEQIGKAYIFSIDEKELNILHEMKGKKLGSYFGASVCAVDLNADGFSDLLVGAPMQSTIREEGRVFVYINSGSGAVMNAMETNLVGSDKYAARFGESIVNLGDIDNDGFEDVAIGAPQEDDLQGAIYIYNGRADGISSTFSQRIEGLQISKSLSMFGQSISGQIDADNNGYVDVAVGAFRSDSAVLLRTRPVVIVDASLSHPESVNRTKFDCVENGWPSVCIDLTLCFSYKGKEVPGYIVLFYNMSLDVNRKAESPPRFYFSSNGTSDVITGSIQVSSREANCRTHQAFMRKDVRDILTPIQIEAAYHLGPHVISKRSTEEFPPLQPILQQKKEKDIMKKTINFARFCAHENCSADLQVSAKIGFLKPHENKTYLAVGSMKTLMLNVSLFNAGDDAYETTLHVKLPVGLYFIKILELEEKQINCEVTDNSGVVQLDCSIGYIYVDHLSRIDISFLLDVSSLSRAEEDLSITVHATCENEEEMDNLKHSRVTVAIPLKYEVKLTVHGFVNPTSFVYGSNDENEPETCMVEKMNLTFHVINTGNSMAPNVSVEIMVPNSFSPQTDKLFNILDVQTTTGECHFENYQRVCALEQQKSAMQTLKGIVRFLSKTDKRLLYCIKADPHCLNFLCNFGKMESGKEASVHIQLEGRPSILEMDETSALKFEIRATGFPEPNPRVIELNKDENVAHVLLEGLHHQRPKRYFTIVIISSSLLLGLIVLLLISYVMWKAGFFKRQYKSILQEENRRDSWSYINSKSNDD
T1 sequence (P26010 20-798): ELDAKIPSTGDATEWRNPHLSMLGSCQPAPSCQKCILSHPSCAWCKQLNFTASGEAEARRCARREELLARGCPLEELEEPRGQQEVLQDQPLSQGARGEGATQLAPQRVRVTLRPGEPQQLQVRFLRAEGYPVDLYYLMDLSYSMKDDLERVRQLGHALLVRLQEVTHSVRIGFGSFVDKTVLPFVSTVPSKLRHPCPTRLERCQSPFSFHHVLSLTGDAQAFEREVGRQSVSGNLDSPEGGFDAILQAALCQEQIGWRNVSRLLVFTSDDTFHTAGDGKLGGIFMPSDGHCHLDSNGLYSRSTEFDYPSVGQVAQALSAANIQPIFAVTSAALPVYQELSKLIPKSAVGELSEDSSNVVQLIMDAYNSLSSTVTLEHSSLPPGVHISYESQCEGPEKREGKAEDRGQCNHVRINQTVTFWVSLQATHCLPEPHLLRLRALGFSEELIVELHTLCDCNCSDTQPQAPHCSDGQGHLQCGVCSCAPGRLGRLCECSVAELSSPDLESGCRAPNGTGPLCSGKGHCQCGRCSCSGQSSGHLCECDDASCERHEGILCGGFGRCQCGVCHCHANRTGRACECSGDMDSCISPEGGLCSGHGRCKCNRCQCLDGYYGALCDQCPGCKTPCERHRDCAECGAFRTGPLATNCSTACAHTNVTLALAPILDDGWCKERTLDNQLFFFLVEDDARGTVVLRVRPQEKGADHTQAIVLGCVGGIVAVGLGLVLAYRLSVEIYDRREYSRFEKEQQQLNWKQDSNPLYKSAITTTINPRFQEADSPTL
Procedure, shortened: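 Peptide inhibition of adhesion measured with MAdCAM-1/Fc chimera immobilised at 200 ng/well and MnCl2-activated (1 mM) RPMI 8866 cells, 30-45 min at 37° C. Adherent cells remaining after three washes detected by MTT reduction at 570 nm, corrected for no-cell wells, giving dose response.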

[2] = Simulated Intestinal Fluid (SIF) Stability Assay; format: in vitro ADME; conditions: pig, 37° C.; for half-life: porcine pancreatin; for half-life at 22 μM: simulated intestinal fluid (SIF) with 1% porcine pancreatin, pH 6.5, porcine pancreatin
Protocol: Simulated Intestinal Fluid (SIF) Stability Assay
Studies were carried out in simulated intestinal fluid (SIF) to evaluate intestinal stability of the peptide molecules of the instant invention. To prepare the SIF reagent, blank FASSIF was prepared by dissolving 0.348 g NaOH, 3.954 g sodium phosphate monobasic monohydrate and 6.186 g NaCl in a final volume of 1 liter water (final pH=6.5). To this solution, 24 g porcine pancreatin (Sigma catalog P7545) was added and stirred for 30 minutes (final pancreatin concentration is 2.4%). The solution was filtered through a cheese cloth and a No. 1 Whatman filter, and 10 ml aliquots were stored at −70° C. To run the reaction, a 10 ml aliquot was thawed at 37° C., and 125 μl aliquots were removed and mixed with an equal volume of blank FASSIF. The peptide stock solution (10 mM in 100% DMSO) was diluted 75-fold in blank FASSIF. A 50 μl aliquot of the diluted peptide was combined with 125 μl pancreatin (2.4%) and 125 μl blank FASSIF to yield final concentrations of 1% pancreatin and 22 μM peptide. The reactions were incubated at 37° C., and at various time points 50 μl aliquots were removed and added to 200 μl of quench solution containing 50% acetonitrile, 50% methanol, 5% formic acid, and 1 μg/ml internal standard. The quenched samples were centrifuged at 10,000 rpm for 10 minutes, and the supernatants were analyzed by LCMS/MS. The percent remaining at each time point was calculated based on the peak area response ratio of test to compound to internal standard. Half-lives were calculated by fitting to a first-order exponential decay equation using GraphPad. A small sampling of the results of these studies is provided and discussed herein and in the accompanying figures.

[3] = thioether monomer peptides, Table 6
[4] = thioether peptide dimers, Table 7

Cc1ccc(C[C@H](NC(=O)[C@H]2NC(=O)[C@H](CC(C)C)NC(=O)[C@H]([C@@H](C)O)NC(=O)[C@H](CC(=O)O)NC(=O)[C@H](CO)NC(=O)[C@H](CCCNC(=N)N)N(C)C(=O)c3ccccc3CSC2(C)C)C(=O)N[C@@H](CCC(=O)O)CC(N)=O)cc1 [compound 132] ([NMeR]SDTL[Pen][Phe(4-Me)][β3hE]-NH2; linker N-6 via X1)
IC50 [1, 3]: < 25 nM | half-life ([2]; monomers, Table 6): > 3 h

CC(C)C[C@@H]1NC(=O)[C@H]([C@@H](C)O)NC(=O)[C@H](CC(=O)O)NC(=O)[C@H](CO)NC(=O)[C@H](CCCNC(=N)N)N(C)C(=O)c2ccccc2CSC[C@@H](C(=O)N2Cc3ccccc3C[C@H]2C(=O)N[C@H](CCCCN)C(N)=O)NC1=O [compound 216] (HELM PEPTIDE1{[meR].S.D.T.L.C.[Tic].[dK].[am]}|CHEM1{[O=C(c1ccccc1C[*:2])[*:1]]}$PEPTIDE1,CHEM1,1:R1-1:R1|PEPTIDE1,CHEM1,6:R3-1:R2$$$V2.0)
IC50 [1, 4]: < 25 nM | half-life at 22 μM ([2]; dimers, Table 7): > 3 h

COC(=O)CC[C@H](NC(=O)[C@@H]1Cc2ccccc2CN1C(=O)[C@@H]1CSCc2ccccc2C(=O)N(C)[C@@H](CCCNC(=N)N)C(=O)N[C@@H](CO)C(=O)N[C@@H](CC(=O)O)C(=O)N[C@@H]([C@@H](C)O)C(=O)N[C@@H](CC(C)C)C(=O)N1)C(=O)N[C@H](CCCCN)C(N)=O [compound 211] (HELM PEPTIDE1{[meR].S.D.T.L.C.[Tic].E.[dK].[am]}|CHEM1{[CO[*:1]]}|CHEM2{[O=C(c1ccccc1C[*:2])[*:1]]}$PEPTIDE1,CHEM1,8:R3-1:R1|PEPTIDE1,CHEM2,1:R1-1:R1|PEPTIDE1,CHEM2,6:R3-1:R2$$$V2.0)
IC50 [1, 4]: < 25 nM | half-life at 22 μM ([2]; dimers, Table 7): 0.117 h

Cc1cccc(C[C@H](NC(=O)[C@H]2NC(=O)[C@H](CC(C)C)NC(=O)[C@H]([C@@H](C)O)NC(=O)[C@H](CC(=O)O)NC(=O)[C@H](CO)NC(=O)[C@H](CCCNC(=N)N)N(C)C(=O)c3ccccc3CSC2(C)C)C(=O)N[C@@H](CCC(=O)O)CC(N)=O)c1 [compound 125] ([NMeR]SDTL[Pen][Phe(3-Me)][β3hE]-NH2; linker N-6 via X1)
IC50 [1, 3]: < 25 nM | half-life ([2]; monomers, Table 6): > 3 h

CC(C)C[C@@H]1NC(=O)[C@H]([C@@H](C)O)NC(=O)[C@H](CC(=O)O)NC(=O)[C@H](CO)NC(=O)[C@H](CCCNC(=N)N)N(C)C(=O)CCSCC[C@@H](C(=O)N[C@@H](Cc2c[nH]c3ccccc23)C(=O)N[C@H](CCCCNC(=O)COCC(=O)NCCCC[C@@H](NC(=O)[C@H](Cc2c[nH]c3ccccc23)NC(=O)[C@@H]2CCSCCC(=O)N(C)[C@@H](CCCNC(=N)N)C(=O)N[C@@H](CO)C(=O)N[C@@H](CC(=O)O)C(=O)N[C@@H]([C@@H](C)O)C(=O)N[C@@H](CC(C)C)C(=O)N2)C(N)=O)C(N)=O)NC1=O [compound 149]
IC50 [1, 4]: > 1000 nM | half-life ([2]; dimers, Table 7): < 0.333 h

Cc1ccccc1C[C@H](NC(=O)[C@H]1NC(=O)[C@H](CC(C)C)NC(=O)[C@H]([C@@H](C)O)NC(=O)[C@H](CC(=O)O)NC(=O)[C@H](CO)NC(=O)[C@H](CCCNC(=N)N)N(C)C(=O)c2ccccc2CSC1(C)C)C(=O)N[C@@H](CCC(=O)O)CC(N)=O [compound 126] ([NMeR]SDTL[Pen][Phe(2-Me)][β3hE]-NH2; linker N-6 via X1)
IC50 [1, 3]: 25 to 100 nM | half-life ([2]; monomers, Table 6): > 3 h
